This note sets out measurements from ChEMBL document CHEMBL5465560, “Selectivity Literature for EUbOPEN Chemogenomic Library” (2024).

In assay [1] the target is Tyrosine-protein kinase CSK (Homo sapiens) (UniProt P41240). The assay can be described thus: Selectivity interaction (Ambit KINOMEscan and KiNATiv profiling in Jurkat cells) EUB0000090b CSK. Particulars: at 1 µM. The class given is cell-based.
The target of assay [2] is Histone-lysine N-methyltransferase, H3 lysine-79 specific (Homo sapiens, UniProt Q8TEK3). As to the kind of experiment: Selectivity interaction (Methyltransferase screen (radiometric assays, panel of 8 PRMTs, 21 protein lysine methyltransferases, 3 DNA methyltransferases, and one RNA methyltransferase)) EUB0000271b DOT1L.
Assay [3] deals with T1, Serine/threonine-protein kinase 3 (Homo sapiens) (UniProt Q13188).
T1 sequence (whole entry): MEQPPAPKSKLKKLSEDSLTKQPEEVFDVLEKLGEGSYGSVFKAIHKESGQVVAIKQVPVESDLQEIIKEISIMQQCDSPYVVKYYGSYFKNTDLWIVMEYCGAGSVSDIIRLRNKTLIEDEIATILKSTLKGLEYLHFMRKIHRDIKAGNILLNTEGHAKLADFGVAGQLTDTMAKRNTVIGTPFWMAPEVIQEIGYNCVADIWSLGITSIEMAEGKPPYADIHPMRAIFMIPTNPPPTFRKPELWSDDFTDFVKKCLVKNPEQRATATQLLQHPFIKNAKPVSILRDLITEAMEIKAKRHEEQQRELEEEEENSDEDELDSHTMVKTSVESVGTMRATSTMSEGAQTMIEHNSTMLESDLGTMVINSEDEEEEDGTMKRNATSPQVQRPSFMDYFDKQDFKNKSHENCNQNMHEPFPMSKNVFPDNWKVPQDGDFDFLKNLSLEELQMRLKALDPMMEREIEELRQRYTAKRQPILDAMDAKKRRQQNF
As to the kind of experiment: Selectivity interaction (KinomeScan (DiscoverX)) EUB0000607a STK3. The following applies: at 10 µM.

The target of assay [4] is T2, Tyrosine-protein kinase Mer (Homo sapiens) (UniProt Q12866).
T2 sequence (whole entry): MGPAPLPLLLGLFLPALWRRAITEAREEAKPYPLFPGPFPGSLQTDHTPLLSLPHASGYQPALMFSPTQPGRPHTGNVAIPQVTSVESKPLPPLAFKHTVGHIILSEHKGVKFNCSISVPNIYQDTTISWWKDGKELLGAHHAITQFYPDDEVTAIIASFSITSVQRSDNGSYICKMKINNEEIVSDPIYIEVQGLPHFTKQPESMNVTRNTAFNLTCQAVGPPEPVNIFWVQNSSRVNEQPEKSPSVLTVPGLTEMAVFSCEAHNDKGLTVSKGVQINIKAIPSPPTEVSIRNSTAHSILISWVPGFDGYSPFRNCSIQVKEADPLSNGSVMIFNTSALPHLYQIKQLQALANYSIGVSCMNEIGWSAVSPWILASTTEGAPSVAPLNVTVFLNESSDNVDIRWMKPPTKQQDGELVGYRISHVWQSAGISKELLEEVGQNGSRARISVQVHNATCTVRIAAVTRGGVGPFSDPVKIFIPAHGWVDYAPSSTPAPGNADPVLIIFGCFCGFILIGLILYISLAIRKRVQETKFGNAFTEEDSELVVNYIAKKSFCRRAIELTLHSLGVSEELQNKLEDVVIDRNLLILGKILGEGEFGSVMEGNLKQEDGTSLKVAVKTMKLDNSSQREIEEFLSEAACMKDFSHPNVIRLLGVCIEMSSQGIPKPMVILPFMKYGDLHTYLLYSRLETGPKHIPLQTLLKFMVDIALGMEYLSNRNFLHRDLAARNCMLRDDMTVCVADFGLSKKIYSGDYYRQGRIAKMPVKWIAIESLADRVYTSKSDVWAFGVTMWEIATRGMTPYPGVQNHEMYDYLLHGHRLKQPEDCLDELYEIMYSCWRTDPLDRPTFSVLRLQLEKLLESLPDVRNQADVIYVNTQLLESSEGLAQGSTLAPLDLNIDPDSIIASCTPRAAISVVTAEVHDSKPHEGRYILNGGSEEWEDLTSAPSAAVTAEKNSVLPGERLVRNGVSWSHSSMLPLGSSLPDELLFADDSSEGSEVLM
As to the kind of experiment: Selectivity interaction (Kinase panel (Invitrogen)) EUB0000639a MERTK. The following applies: at 200 nM.

Assay [5] deals with T3, NUAK family SNF1-like kinase 2 (Homo sapiens) (UniProt Q9H093).
T3 sequence (whole entry): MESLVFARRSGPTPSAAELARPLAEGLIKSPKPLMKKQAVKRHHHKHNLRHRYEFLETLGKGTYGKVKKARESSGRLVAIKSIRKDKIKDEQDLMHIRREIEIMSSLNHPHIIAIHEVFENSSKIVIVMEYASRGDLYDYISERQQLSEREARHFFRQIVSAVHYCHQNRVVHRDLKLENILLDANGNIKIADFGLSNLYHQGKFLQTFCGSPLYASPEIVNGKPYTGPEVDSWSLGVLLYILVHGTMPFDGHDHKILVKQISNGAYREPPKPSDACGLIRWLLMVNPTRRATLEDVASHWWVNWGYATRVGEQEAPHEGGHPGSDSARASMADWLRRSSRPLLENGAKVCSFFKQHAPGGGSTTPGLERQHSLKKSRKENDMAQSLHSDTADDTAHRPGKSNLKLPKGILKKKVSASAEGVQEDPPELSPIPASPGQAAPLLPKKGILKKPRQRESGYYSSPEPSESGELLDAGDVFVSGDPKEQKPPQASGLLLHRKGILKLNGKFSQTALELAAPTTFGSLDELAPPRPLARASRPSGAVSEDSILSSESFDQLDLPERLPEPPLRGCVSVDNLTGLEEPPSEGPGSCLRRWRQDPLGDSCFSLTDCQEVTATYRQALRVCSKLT
The assay can be described thus: Selectivity interaction (ProQinase) EUB0000171b NUAK2.

In assay [6] the target is T4, 5-hydroxytryptamine receptor 2C (Homo sapiens) (UniProt P28335).
T4 sequence (whole entry): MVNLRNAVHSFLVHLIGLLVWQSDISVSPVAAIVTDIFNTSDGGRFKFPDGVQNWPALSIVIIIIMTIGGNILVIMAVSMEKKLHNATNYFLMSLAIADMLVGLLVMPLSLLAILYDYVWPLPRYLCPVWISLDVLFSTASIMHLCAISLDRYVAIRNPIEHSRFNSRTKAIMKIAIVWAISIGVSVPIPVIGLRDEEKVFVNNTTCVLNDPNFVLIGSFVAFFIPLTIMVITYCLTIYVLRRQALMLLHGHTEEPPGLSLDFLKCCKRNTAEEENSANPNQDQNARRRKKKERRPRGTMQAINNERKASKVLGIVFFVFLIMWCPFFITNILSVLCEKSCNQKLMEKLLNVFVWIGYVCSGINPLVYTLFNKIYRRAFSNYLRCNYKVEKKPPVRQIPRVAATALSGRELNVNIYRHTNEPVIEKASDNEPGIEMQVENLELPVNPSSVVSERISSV
The assay can be described thus: Selectivity interaction (Panel of kinases, GPCRs, ion channels and transporters (enzymatic assay)) EUB0000223bCl HTR2C.

Assay [7] deals with Ribosomal protein S6 kinase alpha-4 (Homo sapiens) (UniProt O75676). The assay can be described thus: Selectivity interaction (Upstate Kinase Profiler service (Millipore)) EUB0000056c RPS6KA4. Particulars: at 1 µM.

A value given as a limit tells only on which side of the number the result lay.

Sequence of Histone-lysine N-methyltransferase, H3 lysine-79 specific (Q8TEK3 whole entry, looked up): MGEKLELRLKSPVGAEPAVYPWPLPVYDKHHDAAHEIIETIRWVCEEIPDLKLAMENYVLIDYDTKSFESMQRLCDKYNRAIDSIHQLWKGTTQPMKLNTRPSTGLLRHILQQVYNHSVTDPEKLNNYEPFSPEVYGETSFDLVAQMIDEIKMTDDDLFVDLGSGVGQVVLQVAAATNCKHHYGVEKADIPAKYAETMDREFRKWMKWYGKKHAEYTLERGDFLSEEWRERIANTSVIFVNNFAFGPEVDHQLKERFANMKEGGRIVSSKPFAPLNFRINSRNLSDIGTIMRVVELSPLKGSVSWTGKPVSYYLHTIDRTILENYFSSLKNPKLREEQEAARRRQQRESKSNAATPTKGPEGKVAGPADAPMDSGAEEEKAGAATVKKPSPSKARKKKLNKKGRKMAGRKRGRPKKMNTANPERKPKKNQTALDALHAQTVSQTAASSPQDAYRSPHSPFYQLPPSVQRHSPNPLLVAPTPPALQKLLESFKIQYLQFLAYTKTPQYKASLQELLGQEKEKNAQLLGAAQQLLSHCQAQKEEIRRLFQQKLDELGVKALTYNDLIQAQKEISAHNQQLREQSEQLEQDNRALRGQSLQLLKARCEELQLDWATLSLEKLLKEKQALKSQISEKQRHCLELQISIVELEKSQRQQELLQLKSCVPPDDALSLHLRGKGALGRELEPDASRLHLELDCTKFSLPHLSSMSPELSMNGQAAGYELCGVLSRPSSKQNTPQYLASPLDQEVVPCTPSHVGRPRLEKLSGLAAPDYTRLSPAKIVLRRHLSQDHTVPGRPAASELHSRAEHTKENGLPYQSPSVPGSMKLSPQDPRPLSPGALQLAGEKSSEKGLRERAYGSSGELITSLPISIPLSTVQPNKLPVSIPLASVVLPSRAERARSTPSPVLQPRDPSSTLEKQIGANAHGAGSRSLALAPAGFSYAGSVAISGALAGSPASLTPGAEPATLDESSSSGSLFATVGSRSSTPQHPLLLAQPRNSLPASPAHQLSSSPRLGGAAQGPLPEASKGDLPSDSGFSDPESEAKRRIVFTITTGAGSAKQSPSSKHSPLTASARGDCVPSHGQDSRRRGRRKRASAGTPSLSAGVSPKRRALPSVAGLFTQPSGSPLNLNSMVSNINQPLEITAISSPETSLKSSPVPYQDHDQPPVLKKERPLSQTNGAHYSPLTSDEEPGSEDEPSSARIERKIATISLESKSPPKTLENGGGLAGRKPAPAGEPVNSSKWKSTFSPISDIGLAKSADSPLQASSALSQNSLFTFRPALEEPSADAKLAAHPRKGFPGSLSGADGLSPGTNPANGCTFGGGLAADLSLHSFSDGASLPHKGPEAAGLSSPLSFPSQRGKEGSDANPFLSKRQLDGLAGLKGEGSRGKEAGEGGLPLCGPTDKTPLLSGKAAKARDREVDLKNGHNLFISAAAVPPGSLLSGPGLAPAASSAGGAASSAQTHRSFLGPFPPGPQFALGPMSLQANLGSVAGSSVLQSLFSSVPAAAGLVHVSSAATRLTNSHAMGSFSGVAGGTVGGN
Sequence of Tyrosine-protein kinase CSK (Homo sapiens) (P41240 2-450 limits assumed): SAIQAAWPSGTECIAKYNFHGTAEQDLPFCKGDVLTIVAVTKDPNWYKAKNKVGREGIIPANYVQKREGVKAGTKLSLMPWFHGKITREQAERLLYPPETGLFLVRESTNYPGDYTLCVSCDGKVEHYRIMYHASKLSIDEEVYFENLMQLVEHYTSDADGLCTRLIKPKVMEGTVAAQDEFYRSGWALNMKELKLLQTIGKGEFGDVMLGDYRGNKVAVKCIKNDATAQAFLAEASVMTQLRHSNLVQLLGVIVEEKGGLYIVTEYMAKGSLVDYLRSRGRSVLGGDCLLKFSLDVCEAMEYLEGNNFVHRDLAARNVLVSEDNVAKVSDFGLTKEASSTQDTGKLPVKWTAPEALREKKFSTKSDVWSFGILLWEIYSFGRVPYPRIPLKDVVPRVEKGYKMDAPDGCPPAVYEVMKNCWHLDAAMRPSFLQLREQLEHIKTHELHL
Sequence of Ribosomal protein S6 kinase alpha-4 (Homo sapiens) (O75676 whole entry, looked up): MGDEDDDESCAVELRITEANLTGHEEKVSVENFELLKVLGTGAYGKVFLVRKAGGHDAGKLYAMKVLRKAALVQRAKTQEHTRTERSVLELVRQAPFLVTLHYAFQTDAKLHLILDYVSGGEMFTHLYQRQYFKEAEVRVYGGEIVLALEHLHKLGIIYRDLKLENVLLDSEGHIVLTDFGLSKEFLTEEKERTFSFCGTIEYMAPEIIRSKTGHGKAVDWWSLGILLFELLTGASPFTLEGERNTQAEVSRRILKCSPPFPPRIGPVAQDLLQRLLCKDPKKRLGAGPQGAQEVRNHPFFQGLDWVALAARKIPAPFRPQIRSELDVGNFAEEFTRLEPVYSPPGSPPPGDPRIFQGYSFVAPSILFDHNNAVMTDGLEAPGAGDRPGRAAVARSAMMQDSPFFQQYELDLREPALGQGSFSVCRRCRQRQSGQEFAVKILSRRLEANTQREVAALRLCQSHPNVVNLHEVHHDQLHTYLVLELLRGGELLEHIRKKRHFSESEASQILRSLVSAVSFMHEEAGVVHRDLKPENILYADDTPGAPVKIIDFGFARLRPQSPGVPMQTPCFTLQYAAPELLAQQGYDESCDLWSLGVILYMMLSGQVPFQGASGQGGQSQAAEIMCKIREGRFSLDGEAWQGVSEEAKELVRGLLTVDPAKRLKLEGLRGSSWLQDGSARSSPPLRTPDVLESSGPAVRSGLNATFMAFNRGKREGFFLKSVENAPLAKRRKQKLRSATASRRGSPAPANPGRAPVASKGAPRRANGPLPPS

The compound `CN(C)C/C=C/C(=O)Nc1ccc(C(=O)N2CCCC(Nc3ncc(Cl)c(-c4c[nH]c5ccccc45)n3)C2)cc1` (centres undefined) displayed a % of control in assay [1] of 95%.

For `Cc1cc(C)cc([C@@H]2c3cc(C)ccc3NC(=O)CN2C(=O)c2ccc(Br)s2)c1`, the % of activity in assay [2] (at 1 µM) is 102%; in assay [2] (at 10 µM), 92.7%.

The compound `CNC(=O)Nc1ccc(-c2nc(N3CC4CCC(C3)O4)c3cnn(C4CCC5(CC4)OCCO5)c3n2)cc1` gave a % of control in assay [3] of 97%.

As for `CC[C@@H]1[C@H](F)C(=O)N[C@@H]1COc1nccc2cc(C(N)=O)c(OC)cc12` [ZIMLOVISERTIB], the % of inhibition in assay [4] worked out at 3.13%.

Take `C=CC(=O)Nc1cccc(C(=O)Nc2ccc(Nc3cc(-c4[nH]c(SC)nc4C)ccn3)cc2)c1`: the % of control in assay [5] (at 1 µM) was 99%; in assay [5] (at 5 µM), 87%.

For `COc1cc(C(=O)N2CC[C@@H](O)[C@@H](N)C2)cc2nc(-c3cc4ccccc4n3CC3CC3)n(C)c12`, the pXC50 in assay [6] is less than 4.4 M.

As to `Cc1ccc(-c2ccc3c(ccc4sc5c(c43)NC[C@@H](C)NC5=O)n2)cn1`, the % of inhibition in assay [7] is -19%.
